Results published in ChEMBL document CHEMBL4425099, “Use of Osmotic Pumps to Establish the Pharmacokinetic-Pharmacodynamic Relationship and Define Desirable Human Performance Characteristics for Aggrecanase Inhibitors” (J Med Chem, 2016).
Activity calls are given as the source filed them. The rule behind the calls is not given here.

Assays:
[1] = target: 72 kDa type IV collagenase (Homo sapiens, UniProt P08253); assay: Inhibition of human MMP2 using Mca-PQGL-(3-[2,4-dinitrophenyl]-L-2,3-diaminopropionyl)-AR-OH as substrate measured after 2 to 4 hrs by fluorescence analysis
Sequence of 72 kDa type IV collagenase (P08253 whole entry): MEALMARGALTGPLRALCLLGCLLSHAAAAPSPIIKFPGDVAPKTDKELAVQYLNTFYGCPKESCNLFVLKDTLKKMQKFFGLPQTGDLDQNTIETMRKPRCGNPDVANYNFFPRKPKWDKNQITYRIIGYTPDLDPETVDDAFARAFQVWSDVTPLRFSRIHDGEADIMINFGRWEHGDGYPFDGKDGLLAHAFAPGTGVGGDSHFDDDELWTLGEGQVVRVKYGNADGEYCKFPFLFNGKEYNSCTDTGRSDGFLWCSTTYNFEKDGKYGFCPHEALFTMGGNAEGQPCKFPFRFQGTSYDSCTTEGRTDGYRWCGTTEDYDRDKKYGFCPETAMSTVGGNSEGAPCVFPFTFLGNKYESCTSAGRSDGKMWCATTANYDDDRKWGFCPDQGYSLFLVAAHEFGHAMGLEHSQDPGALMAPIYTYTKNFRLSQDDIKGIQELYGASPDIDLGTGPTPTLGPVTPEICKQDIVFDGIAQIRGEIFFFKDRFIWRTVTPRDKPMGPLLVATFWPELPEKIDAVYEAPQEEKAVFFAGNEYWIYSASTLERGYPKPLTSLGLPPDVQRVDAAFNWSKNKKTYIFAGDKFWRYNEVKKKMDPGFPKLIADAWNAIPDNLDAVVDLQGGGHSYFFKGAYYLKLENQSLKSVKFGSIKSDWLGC

Matrilysin = target: T1, Matrilysin (Homo sapiens, UniProt P09237); assay: Inhibition of human MMP7 using Mca-PQGL-(3-[2,4-dinitrophenyl]-L-2,3-diaminopropionyl)-AR-OH as substrate measured after 2 to 4 hrs by fluorescence analysis
T1 sequence (P09237 whole entry): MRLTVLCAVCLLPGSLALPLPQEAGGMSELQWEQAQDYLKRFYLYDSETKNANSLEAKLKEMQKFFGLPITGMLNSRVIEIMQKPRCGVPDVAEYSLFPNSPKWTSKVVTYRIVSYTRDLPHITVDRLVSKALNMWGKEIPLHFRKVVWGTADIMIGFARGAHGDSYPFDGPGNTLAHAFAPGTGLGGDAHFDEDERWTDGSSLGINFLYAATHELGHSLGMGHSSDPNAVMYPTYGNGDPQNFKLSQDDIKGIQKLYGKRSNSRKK

[2] = target: Disintegrin and metalloproteinase domain-containing protein 17 (Homo sapiens, UniProt P78536); assay: Inhibition of human TACE using Mca-PQGL-(3-[2,4-dinitrophenyl]-L-2,3-diaminopropionyl)-AR-OH as substrate measured after 2 to 4 hrs by fluorescence analysis
Sequence of Disintegrin and metalloproteinase domain-containing protein 17 (P78536 whole entry, the tested form may be a part): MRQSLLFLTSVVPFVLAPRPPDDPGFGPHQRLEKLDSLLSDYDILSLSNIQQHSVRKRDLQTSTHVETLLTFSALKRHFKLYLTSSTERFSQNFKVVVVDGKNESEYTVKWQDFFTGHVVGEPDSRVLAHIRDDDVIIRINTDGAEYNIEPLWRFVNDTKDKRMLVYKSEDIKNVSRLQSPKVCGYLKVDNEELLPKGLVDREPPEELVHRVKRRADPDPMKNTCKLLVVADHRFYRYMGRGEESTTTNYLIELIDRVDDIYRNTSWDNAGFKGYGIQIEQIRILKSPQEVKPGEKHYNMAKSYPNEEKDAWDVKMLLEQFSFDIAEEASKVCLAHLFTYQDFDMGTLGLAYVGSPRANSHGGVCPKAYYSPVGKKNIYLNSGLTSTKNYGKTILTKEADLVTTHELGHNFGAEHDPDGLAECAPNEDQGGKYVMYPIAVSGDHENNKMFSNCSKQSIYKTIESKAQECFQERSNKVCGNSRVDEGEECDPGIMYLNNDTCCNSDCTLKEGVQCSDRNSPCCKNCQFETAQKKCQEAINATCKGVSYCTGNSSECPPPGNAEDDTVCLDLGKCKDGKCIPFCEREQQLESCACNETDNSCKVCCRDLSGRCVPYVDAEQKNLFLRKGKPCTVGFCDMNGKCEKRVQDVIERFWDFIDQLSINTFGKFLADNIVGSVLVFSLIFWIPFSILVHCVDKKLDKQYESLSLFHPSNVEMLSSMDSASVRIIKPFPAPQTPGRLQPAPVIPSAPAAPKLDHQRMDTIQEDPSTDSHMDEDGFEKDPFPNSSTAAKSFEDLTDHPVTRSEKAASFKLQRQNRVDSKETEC

[3] = Cmax in Lewis rat plasma at 10 mg/kg, po; type: ADME, organism-based; parameters: dose 10 mg/kg, route oral
[4] = Plasma concentration in Lewis rat at 10 mg/kg, po bid measured after 8 hrs; type: ADME, organism-based
[5] = target: T2, ADAMTS5 (Rattus norvegicus) (UniProt Q6TY19); assay: Inhibition of rat ADAMTS5 using 43-mer VQTVTWPDMELPLPRNITEGEARGSVILTVKPIFEVSPSPLKG as substrate measured after 3 hrs by AlphaScreen assay
T2 sequence (whole entry): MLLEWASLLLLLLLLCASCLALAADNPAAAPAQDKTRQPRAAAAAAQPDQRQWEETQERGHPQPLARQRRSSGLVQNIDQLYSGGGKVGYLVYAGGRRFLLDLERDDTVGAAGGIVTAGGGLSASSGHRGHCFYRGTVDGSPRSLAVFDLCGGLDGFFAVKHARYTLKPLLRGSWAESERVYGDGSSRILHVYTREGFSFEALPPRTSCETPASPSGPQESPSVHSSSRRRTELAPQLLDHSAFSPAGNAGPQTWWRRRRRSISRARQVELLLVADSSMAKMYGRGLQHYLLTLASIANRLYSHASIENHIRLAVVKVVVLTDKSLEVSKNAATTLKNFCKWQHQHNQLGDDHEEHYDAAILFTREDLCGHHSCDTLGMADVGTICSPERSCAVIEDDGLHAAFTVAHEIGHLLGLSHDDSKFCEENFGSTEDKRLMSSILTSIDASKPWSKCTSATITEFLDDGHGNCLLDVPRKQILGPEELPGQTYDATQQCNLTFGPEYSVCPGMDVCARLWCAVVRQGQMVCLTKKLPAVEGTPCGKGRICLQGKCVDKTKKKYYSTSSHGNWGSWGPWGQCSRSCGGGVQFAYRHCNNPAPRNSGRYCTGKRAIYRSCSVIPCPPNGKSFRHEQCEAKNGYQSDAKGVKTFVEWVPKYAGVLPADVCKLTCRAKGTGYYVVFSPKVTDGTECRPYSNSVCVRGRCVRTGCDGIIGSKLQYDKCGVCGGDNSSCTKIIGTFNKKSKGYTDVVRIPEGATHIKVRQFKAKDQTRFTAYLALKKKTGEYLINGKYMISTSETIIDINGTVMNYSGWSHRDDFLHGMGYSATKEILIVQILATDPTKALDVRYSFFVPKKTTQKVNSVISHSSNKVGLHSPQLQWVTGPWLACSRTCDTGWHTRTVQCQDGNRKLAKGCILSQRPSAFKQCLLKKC

Homo sapiens [6] = species on record: Homo sapiens; assay: Selectivity ratio of IC50 for human MMP9 to IC50 for human ADAMTS4
Homo sapiens [7] = species on record: Homo sapiens; assay: Selectivity ratio of IC50 for human TACE to IC50 for human ADAMTS4
Homo sapiens [8] = species on record: Homo sapiens; assay: Selectivity ratio of IC50 for human MMP7 to IC50 for human ADAMTS5
Homo sapiens [9] = species on record: Homo sapiens; assay: Selectivity ratio of IC50 for human MMP9 to IC50 for human ADAMTS5
Homo sapiens [10] = species on record: Homo sapiens; assay: Selectivity ratio of IC50 for human MMP14 to IC50 for human ADAMTS5
Homo sapiens [11] = species on record: Homo sapiens; assay: Selectivity ratio of IC50 for human TACE to IC50 for human ADAMTS5
[12] = AUC in Lewis rat at 10 mg/kg, po; type: ADME, organism-based; conditions: in vivo
Rattus norvegicus = assay: Reduction in ADAMTS-4/ADAMTS-5 mediated aggrecan cleavage products in Lewis rat model of MIA assessed as aggrecanase-cleaved fragments at 100 mg/kg, po bid administered post 3 days MIA induction measured after 4 hrs of last dosage on day 7 by NITEGE sandwich ELISA; type: functional
[13] = Plasma concentration in Lewis rat model of MIA at 10 mg/kg, po bid administered post 3 days MIA induction measured after 4 hrs of last dosage on day 7; type: ADME, organism-based
[14] = Plasma concentration in Lewis rat model of MIA at 30 mg/kg, po bid administered post 3 days MIA induction measured after 4 hrs of last dosage on day 7; type: ADME, organism-based
[15] = Plasma concentration in Lewis rat model of MIA at 100 mg/kg, po bid administered post 3 days MIA induction measured after 4 hrs of last dosage on day 7; type: ADME, organism-based
[16] = Ratio of plasma concentration in Lewis rat model of MIA at 30 mg/kg, po bid administered post 3 days MIA induction measured after 4 hrs of last dosage on day 7 to IC50 for human ADAMTS5 in presence of Lewis rat plasma; type: ADME, organism-based; conditions: in vivo
[17] = Ratio of plasma concentration in Lewis rat model of MIA at 100 mg/kg, po bid administered post 3 days MIA induction measured after 4 hrs of last dosage on day 7 to IC50 for human ADAMTS5 in presence of Lewis rat plasma; type: ADME, organism-based; conditions: in vivo

| Compound | IC50 [1] | IC50 (Matrilysin) | IC50 [2] | Cmax [3] | concentration at 8 h [4] | inhibition [5] | Ratio IC50 (Homo sapiens [6]) | Ratio IC50 (Homo sapiens [7]) | Ratio IC50 (Homo sapiens [8]) | Ratio IC50 (Homo sapiens [9]) | Ratio IC50 (Homo sapiens [10]) | Ratio IC50 (Homo sapiens [11]) | AUC [12] | concentration at 4 h [13] | concentration at 4 h [14] | concentration at 4 h [15] | Ratio [16] | Ratio [17] | inhibition in vivo at 100 mg/kg (Rattus norvegicus) |
| --- | --- | --- | --- | --- | --- | --- | --- | --- | --- | --- | --- | --- | --- | --- | --- | --- | --- | --- | --- |
| Cc1cnc([C@]2(CNC(=O)c3cc4cc(C(F)(F)F)ccc4o3)NC(=O)NC2=O)n1C | 11 µM | 100 µM | 10 µM | 11000 nM | 480 nM | Active | > 1000 | > 1000 | > 1000 | > 1000 | > 1000 | > 1000 | 21 µM·h | 1400 nM | 4800 nM | 31000 nM | 76 | 490 | 62% |
| CCn1ccnc1[C@]1(CNC(=O)c2cc3cc(C(F)(F)F)ccc3o2)NC(=O)NC1=O | 11 µM | 100 µM | 10 µM | 18000 nM | 290 nM | Active | > 1000 | > 1000 | > 1000 | > 1000 | > 1000 | > 1000 | 28 µM·h | 930 nM | 3600 nM | 11000 nM | 54 | 160 | 49% |
| Cn1ccnc1[C@]1(CNC(=O)c2cc3cc(C(F)(F)F)ccc3o2)NC(=O)NC1=O |  | 100 µM |  |  | 220 nM | Active | > 1000 | > 1000 | > 1000 | > 1000 | > 1000 | > 1000 |  | 510 nM | 1600 nM | 11000 nM | 46 | 310 | 68% |

More lines, main results first:

| IC50 [1] | IC50 (Matrilysin) | IC50 [2] | Cmax [3] | concentration at 8 h [4] | inhibition [5] | Ratio IC50 (Homo sapiens [6]) | Ratio IC50 (Homo sapiens [7]) | Ratio IC50 (Homo sapiens [8]) | Ratio IC50 (Homo sapiens [9]) | Ratio IC50 (Homo sapiens [10]) | Ratio IC50 (Homo sapiens [11]) | AUC [12] | concentration at 4 h [13] | concentration at 4 h [14] | concentration at 4 h [15] | Ratio [16] | Ratio [17] | Compound | inhibition in vivo at 100 mg/kg (Rattus norvegicus) |
| --- | --- | --- | --- | --- | --- | --- | --- | --- | --- | --- | --- | --- | --- | --- | --- | --- | --- | --- | --- |
| 3.2 µM | 100 µM | 10 µM | 11000 nM | 260 nM | Active | > 1000 | > 1000 | > 1000 | > 1000 | > 1000 | > 1000 |  |  |  |  |  |  | Cn1ccnc1[C@]1(CNC(=O)c2cc3cc(Cl)ccc3o2)NC(=O)NC1=O |  |
| 5.8 µM | 100 µM |  |  |  | Active | > 1000 | > 1000 | > 1000 | > 1000 | > 1000 | > 1000 |  |  |  |  |  |  | O=C1NC(=O)[C@](CNC(=O)c2cc3cc(C(F)(F)F)ccc3o2)(C2CC2)N1 |  |
| 2.4 µM |  | 8.9 µM | 18000 nM | 450 nM | Active | > 1000 | > 1000 | > 1000 | > 1000 | > 1000 | > 1000 | 27 µM·h |  |  |  |  |  | Cc1cnc([C@]2(CNC(=O)c3cc4cc(Cl)ccc4o3)NC(=O)NC2=O)n1C |  |
| 3.5 µM |  | 10 µM | 23000 nM | 160 nM | Active | > 1000 | > 1000 | > 1000 | > 1000 | > 1000 | > 1000 | 20 µM·h |  |  |  |  |  | CCn1ccnc1[C@]1(CNC(=O)c2cc3cc(Cl)ccc3o2)NC(=O)NC1=O |  |
